The target in data set [1] is T1, hCAT1 (Homo sapiens, UniProt P30825).
T1 construct: expressed in transfected cells; host or cells: LLCPK-TREx (porcine kidney epithelial) cells, induced with tetracycline and butyrate
The data set can be described thus: hCAT1 competition uptake assay (inhibition of 3H-arginine uptake into LLCPK-TREx-hCAT1 cells). To be noted: 3H-arginine as substrate; for IC50: LLCPK-TREx-hCAT1 cells induced to express hCAT1, 10 minutes at room temperature. The class given is cell-based. Here is the method:
A modified competition uptake assay was developed to determine the ability of a test compound(s) to inhibit the uptake of radiolabeled substrates into LLCPK-TREx-hCAT1 cells induced to over-express hCAT1. The results are stated as affinities (IC50).
The competition uptake assay was prepared as follows: Compounds were prepared for assay by diluting a 100 mM stock concentration (in DMSO) to the appropriate working concentration. Typically, seven-point dose response curves were prepared starting at a final assay concentration of 3 mM and carrying out three-fold dilutions. These dilutions were prepared by making a working “compound” plate that contained a 2×solution of the desired starting concentration of each test compound in duplicate in row A of a v-bottom microtiter plate. Six 3-fold serial dilutions (from row B to G) were made into the sodium free HBSS assay buffer (60 mg/L KH2PO4 (0.4 mM) (Sigma; P-0662); 0.42 g/L KHCO3 (4.17 mM); (Sigma; P-6037); 1 g/L Glucose ([…]) (Sigma; G-7528); 2.1 g/L MOPS (10 mM) (Sigma; M-1254); 1.05 ml/L MgCl2.(H2O)6 (Sigma; M-1028); 100 mg/L MgSO4.(H2O)7 (Sigma; M-5921); 140 mg/L CaCl2 (1.3 mM)(Sigma; C-5080); 19.1 g/L Choline Chloride (137 mM) (Sigma; C-7527), pH to 7.4 with KOH) with the appropriate amount of DMSO so that the DMSO concentration remained constant at all dilutions. The resulting “compound” plate contained serial dilutions of six compounds in duplicate. The final row (H) of the assay plate was filled with HBSS buffer alone (H1-H6) or 10 mM unlabeled Arginine in HBSS (H7-H12) to measure the total or non-specific uptake, respectively.
^3H-Arginine was diluted into HBSS buffer to a final concentration of 4,000 cpm/μl. Sufficient solution was prepared to allow addition of 25 μl/well (the final concentration was 100,000 cpm/well).
LLCPK-TREx-hCAT1 cells, plated in 96-well plates and treated with 2 mM butyrate and tetracycline (or tet analog (e.g., doxycycline), were removed from the CO2 incubator. Growth media was removed from the cells, and the cells were washed twice in room temperature HBSS (100 μl/well/wash) using a 96-well plate washer (Bio Tek ELX405). Alternatively, cells were washed manually with equivalent volumes using a multichannel pipettor. Immediately before beginning the assay, the final 100 μl wash solution was removed from the cells by aspiration.
Using a 96-well pipettor, 25 μl from the “compound” plate was added to each well of the cell plate. The assay was started by adding 25 μl of the ^3H-Arginine working solution. The plate was incubated at room temperature for 10 minutes. The assay was stopped by washing the cells four times with ice-cold HBSS buffer using a ELX405 plate washer (100 μl buffer/well/wash) having an angled buffer dispenser.
Scintillation fluid (200 μl) (Optiphase Supermix (Perkin Elmer) was added to each well, and the plate was covered with a 96-well adhesive plate cover and placed on a shaker for 20 minutes. The plates were counted on a 96-well plate scintillation counter for 60 sec/well. The data were analyzed using a sigmoidal dose response curve-fitting program (Prism, GraphPad, Inc, San Diego, Calif.; equation: one-site competition).
The competition experiment was performed as described in Example 7. Non-specific uptake was determined by measuring the uptake into cells not induced to express the transporter (“no tet”). […] In control cells, uptake of labeled arginine remained at background levels and was largely unaffected by an excess of unlabeled substrates.

Data set [2] deals with T2, PgP (Homo sapiens, UniProt P08183).
T2 construct: purchased BD Biosciences; host or cells: baculovirus membranes
Put plainly: Transwell monolayer efflux assay in MDCK cells transfected with TREx-PgP. The class given is in vitro ADME. To be noted: 2.5 nM 3H-vinblastine, absence and presence of 250 μM verapamil. Here is the method: Transwell monolayer efflux assays can be performed by transfecting MDCK cells with the tetracycline-inducible TREx-PgP expression vector. The cells optionally can be transfected with a nucleic acid encoding the transporter of interest. The transfected cells are seeded on polycarbonate filter membranes in transwell dishes and grown for 3-5 days, yielding a polarized monolayer with tight junctions between cells.

The target in data set [3] is T1, hCAT1. The data set can be described thus: hCAT1 direct uptake assay (LC-MS-MS, LLCPK-TREx-hCAT1 cells induced vs no tet). To be noted: direct uptake into LLCPK-TREx-hCAT1 cells. The class given is cell-based. Here is the method: Four concentrations (bracketing the affinity as measured by competition assays) per compound were routinely tested. Non-specific uptake was determined by measuring the uptake into cells not induced to express the transporter (“no tet”).
Typically, four concentrations bracketing the IC50 were tested. […] The samples were robustly vortexed and centrifuged for 10 minutes at 13,200 rpm to spin down any precipitate. […] Three additional 2-fold dilutions were made in the subsequent rows (B-D or […]) in HBSS.
An internal standard of 50 μM propranolol in 50:50 ethanol:water was also prepared.
The cells were washed twice in room temperature HBSS (100 μl/well/wash) using a 96-well plate washer (Bio Tek ELX405). Alternatively, cells were washed manually with equivalent volumes using a multichannel pipettor. Immediately before the assay was begun, the final 100 μl wash solution was removed from the cells.
After the final wash, as much of the wash buffer as possible was removed by aspirating the wells with a probe that reached the bottom of the wells. (Residual salts from the wash buffer can adversely affect the LC-MS-MS by disrupting the LC method or by suppressing the MS signal.) 150 μl of a 50:50 ethanol:water solution was added to each well to lyse the cells and extract the test compound. The plate was covered and allowed to sit for 20 minutes at room temperature to ensure cell lysis.
120 μl of the cell extract was removed from each well and transferred to a fresh 96-well v-bottom polypropylene plate. This plate was covered with an adherent cover (top seal) and centrifuged for 15 minutes at 5,700 rpm (Allegra 25R centrifuge) at 4° C. to pellet any cell precipitate. 10 μl of the 50 μM propranolol solution was added to each well of a fresh 96-well plate (a plate amenable for sampling in the LC-MS-MS). […] The levels of intracellular compounds were determined by converting the peak area to concentration by extrapolating from the standard curve for each compound. Uptake was expressed as μM/well.

T1 sequence (P30825 whole entry): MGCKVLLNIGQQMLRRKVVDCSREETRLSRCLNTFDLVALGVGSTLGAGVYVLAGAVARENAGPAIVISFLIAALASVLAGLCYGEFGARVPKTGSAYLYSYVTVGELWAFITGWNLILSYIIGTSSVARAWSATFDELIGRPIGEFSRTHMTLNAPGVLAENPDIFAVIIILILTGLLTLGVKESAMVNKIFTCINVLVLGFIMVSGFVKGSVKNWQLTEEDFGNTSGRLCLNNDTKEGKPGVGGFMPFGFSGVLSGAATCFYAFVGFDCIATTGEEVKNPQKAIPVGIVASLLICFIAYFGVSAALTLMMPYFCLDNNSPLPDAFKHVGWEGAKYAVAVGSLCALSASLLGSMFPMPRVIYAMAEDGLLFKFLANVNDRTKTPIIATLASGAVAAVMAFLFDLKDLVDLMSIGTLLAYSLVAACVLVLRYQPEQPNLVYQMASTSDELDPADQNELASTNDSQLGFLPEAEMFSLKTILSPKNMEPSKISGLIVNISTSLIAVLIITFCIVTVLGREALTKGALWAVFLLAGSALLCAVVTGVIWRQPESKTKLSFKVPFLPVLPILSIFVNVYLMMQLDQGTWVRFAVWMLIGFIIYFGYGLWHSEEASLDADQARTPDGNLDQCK
T2 sequence (P08183 whole entry): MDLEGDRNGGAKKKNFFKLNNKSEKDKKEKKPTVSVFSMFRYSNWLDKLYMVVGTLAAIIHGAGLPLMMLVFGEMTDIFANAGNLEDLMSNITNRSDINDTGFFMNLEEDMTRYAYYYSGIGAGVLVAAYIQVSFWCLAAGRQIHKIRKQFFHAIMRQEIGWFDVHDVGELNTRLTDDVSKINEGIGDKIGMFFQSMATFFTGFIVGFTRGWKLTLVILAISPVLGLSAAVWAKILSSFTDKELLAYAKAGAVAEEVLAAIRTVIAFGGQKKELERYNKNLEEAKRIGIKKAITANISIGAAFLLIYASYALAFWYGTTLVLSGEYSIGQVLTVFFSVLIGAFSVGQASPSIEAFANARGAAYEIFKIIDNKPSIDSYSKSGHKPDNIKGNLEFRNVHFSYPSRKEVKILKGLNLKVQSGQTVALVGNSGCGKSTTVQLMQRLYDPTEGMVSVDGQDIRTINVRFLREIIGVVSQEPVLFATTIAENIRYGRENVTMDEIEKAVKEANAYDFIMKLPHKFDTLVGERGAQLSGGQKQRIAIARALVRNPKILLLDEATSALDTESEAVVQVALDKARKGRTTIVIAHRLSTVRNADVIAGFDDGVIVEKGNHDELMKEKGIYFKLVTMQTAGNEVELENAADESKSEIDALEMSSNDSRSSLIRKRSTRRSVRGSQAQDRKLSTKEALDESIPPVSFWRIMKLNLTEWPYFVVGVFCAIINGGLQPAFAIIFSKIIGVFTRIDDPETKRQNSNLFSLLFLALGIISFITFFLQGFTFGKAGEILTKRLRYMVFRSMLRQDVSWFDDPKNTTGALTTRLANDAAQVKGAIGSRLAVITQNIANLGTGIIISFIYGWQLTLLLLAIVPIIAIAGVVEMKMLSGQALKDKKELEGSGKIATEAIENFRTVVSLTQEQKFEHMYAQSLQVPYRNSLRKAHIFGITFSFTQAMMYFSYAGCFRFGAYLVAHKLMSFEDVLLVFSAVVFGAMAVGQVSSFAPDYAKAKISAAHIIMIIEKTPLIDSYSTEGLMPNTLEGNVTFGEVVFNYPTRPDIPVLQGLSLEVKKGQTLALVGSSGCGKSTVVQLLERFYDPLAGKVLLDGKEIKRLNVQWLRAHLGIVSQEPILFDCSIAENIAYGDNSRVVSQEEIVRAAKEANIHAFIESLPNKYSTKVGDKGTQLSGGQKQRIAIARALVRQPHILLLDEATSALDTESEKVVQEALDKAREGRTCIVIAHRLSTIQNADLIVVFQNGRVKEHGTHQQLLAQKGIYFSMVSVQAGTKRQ

As to `N=C(N)NCCC[C@H](N)C(=O)O` [Arginine, arginine], in data set [1], the concentration for half-maximal inhibition (IC50) is 83 µM. In other words, the double-digit micromolar range.

`NCCC[C@H](N)C(=O)O` [Ornithine, ornithine] showed a 50% inhibitory concentration (IC50) in data set [1] of 73 µM.

For `CC[C@]1(O)C[C@@H]2CN(CCc3c([nH]c4ccccc34)[C@@](C(=O)OC)(c3cc4c(cc3OC)N(C)[C@H]3[C@@](O)(C(=O)OC)[C@H](OC(C)=O)[C@]5(CC)C=CCN6CC[C@]43[C@@H]65)C2)C1` [^3H-vinblastine, vinblastine], in data set [2], the “PgP substrate status from apical to basolateral and basolateral to apical transport” value is given as “substrate of PgP”.

N-methyl arginine [N-Me-Arg]: the pIC50 in data set [1] (LLCPK-TREx-hCAT1 cells induced to express hCAT1) is 3.7. The compound further came in with a 50% inhibitory concentration (IC50) in data set [1] of 190 µM. The same compound returned a pKm in data set [3] of 3.8. Also, the Vmax in data set [3] (5 minutes at room temperature) was 3.9 μM/well. The Km in data set [3] (5 minutes at room temperature, specific uptake (+TET minus no TET)) stood at 158 µM.

Turning to `NCCCC[C@H](N)C(=O)O` [Lysine, lysine], the IC50 in data set [1] was found to be 140 µM.

These data come from patent publication US7670782B2, “Screening of compounds for CAT1 transporter activity” (XenoPort, Inc., priority 2005, dated 2010).
